Legend:
[1] = system: Brassica rapa subsp. oleifera; assay: Growth inhibition of Brassica rapa subsp. oleifera assessed as chlorophyll b level at 3 x 10^-4 M after 7 days; format: functional; design: scale not given: the % may be the effect or the level left
[2] = system: Brassica rapa subsp. oleifera; assay: Growth inhibition of Brassica rapa subsp. oleifera assessed as chlorophyll b level at 1 x 10^-4 M after 7 days; format: functional; design: scale not given: the % may be the effect or the level left
[3] = system: Brassica rapa subsp. oleifera; assay: Growth inhibition of Brassica rapa subsp. oleifera assessed as chlorophyll a level at 5 x 10^-5 M after 7 days; format: functional; design: scale not given: the % may be the effect or the level left
[4] = Toxicity in ip dosed Mus musculus ddY (mouse) assessed as mortality after 1 to 7 days; format: organism-based; conditions: in vivo
[5] = Toxicity in Mus musculus ddY (mouse) assessed as mortality at 5 mg/kg, ip after 7 days; format: organism-based; design: dose 5 mg/kg, route intraperitoneal; conditions: in vivo
[6] = Toxicity in Mus musculus ddY (mouse) assessed as mortality at 4 mg/kg, ip after 7 days; format: organism-based; design: dose 4 mg/kg, route intraperitoneal; conditions: in vivo
[7] = Toxicity in Mus musculus ddY (mouse) assessed as mortality at 6 mg/kg, ip after 7 days; format: organism-based; design: dose 6 mg/kg, route intraperitoneal; conditions: in vivo
[8] = Toxicity in Mus musculus ddY (mouse) assessed as mortality at 7 mg/kg, ip after 7 days; format: organism-based; design: dose 7 mg/kg, route intraperitoneal; conditions: in vivo
[9] = Toxicity in Mus musculus ddY (mouse) assessed as mortality at 8 mg/kg, ip after 7 days; format: organism-based; design: dose 8 mg/kg, route intraperitoneal; conditions: in vivo
[10] = system: Brassica rapa subsp. oleifera; assay: Growth inhibition of Brassica rapa subsp. oleifera assessed as total chlorophyll level at 5 x 10^-5 M after 7 days; format: functional; design: scale not given: the % may be the effect or the level left
[11] = system: Brassica rapa subsp. oleifera; assay: Growth inhibition of Brassica rapa subsp. oleifera assessed as total chlorophyll level at 3 x 10^-5 M after 7 days; format: functional; design: scale not given: the % may be the effect or the level left
[12] = system: Brassica rapa subsp. oleifera; assay: Growth inhibition of Brassica rapa subsp. oleifera assessed as total chlorophyll level at 3 x 10^-4 M after 7 days; format: functional; design: scale not given: the % may be the effect or the level left
Allium tuberosum [13] = assay: Growth inhibition of Allium tuberosum assessed as root growth at 5 x 10^-5 M after 10 days; format: functional
Echinochloa esculenta [14] = assay: Growth inhibition of Echinochloa esculenta assessed as root growth at 3 x 10^-5 M after 7 days; format: functional
Allium tuberosum [15] = assay: Growth inhibition of Allium tuberosum assessed as root growth at 3 x 10^-4 M after 10 days; format: functional
Echinochloa esculenta [16] = assay: Growth inhibition of Echinochloa esculenta assessed as root growth at 1 x 10^-4 M after 7 days; format: functional
Echinochloa esculenta [17] = assay: Growth inhibition of Echinochloa esculenta assessed as root growth at 3 x 10^-4 M after 7 days; format: functional
[18] = system: Brassica rapa subsp. oleifera; assay: Growth inhibition of Brassica rapa subsp. oleifera assessed as root growth at 1 x 10^-4 M after 7 days; format: functional
[19] = system: Brassica rapa subsp. oleifera; assay: Growth inhibition of Brassica rapa subsp. oleifera assessed as root growth at 3 x 10^-4 M after 7 days; format: functional
Lactuca sativa [20] = assay: Growth inhibition of Lactuca sativa (lettuce) assessed as root growth at 3 x 10^-5 M after 7 days; format: functional
Lactuca sativa [21] = assay: Growth inhibition of Lactuca sativa (lettuce) assessed as root growth at 3 x 10^-4 M after 7 days; format: functional
Sesamum indicum [22] = assay: Growth inhibition of Sesamum indicum (sesame) assessed as root growth at 1 x 10^-5 M after 7 days; format: functional
Sesamum indicum [23] = assay: Growth inhibition of Sesamum indicum (sesame) assessed as root growth at 3 x 10^-4 M after 7 days; format: functional
Sesamum indicum [24] = assay: Growth inhibition of Sesamum indicum (sesame) assessed as root growth at 1 x 10^-4 M after 7 days; format: functional
[25] = Toxicity in Mus musculus ddY (mouse) assessed as mortality at 4 mg/kg, ip after 3 days; format: organism-based; design: dose 4 mg/kg, route intraperitoneal; conditions: in vivo
[26] = Toxicity in Mus musculus ddY (mouse) assessed as mortality at 6 mg/kg, ip after 3 days; format: organism-based; design: dose 6 mg/kg, route intraperitoneal; conditions: in vivo
[27] = Toxicity in Mus musculus ddY (mouse) assessed as mortality at 5 mg/kg, ip after 3 days; format: organism-based; design: dose 5 mg/kg, route intraperitoneal; conditions: in vivo
[28] = Toxicity in Mus musculus ddY (mouse) assessed as mortality at 7 mg/kg, ip after 3 days; format: organism-based; design: dose 7 mg/kg, route intraperitoneal; conditions: in vivo
[29] = Toxicity in Mus musculus ddY (mouse) assessed as mortality at 4 mg/kg, ip after 2 days; format: organism-based; design: dose 4 mg/kg, route intraperitoneal; conditions: in vivo
[30] = Toxicity in Mus musculus ddY (mouse) assessed as mortality at 7 mg/kg, ip after 2 days; format: organism-based; design: dose 7 mg/kg, route intraperitoneal; conditions: in vivo
[31] = Toxicity in Mus musculus ddY (mouse) assessed as mortality at 8 mg/kg, ip after 2 days; format: organism-based; design: dose 8 mg/kg, route intraperitoneal; conditions: in vivo
[32] = Toxicity in Mus musculus ddY (mouse) assessed as mortality at 4 mg/kg, ip after 1 day; format: organism-based; design: dose 4 mg/kg, route intraperitoneal; conditions: in vivo
[33] = Toxicity in Mus musculus ddY (mouse) assessed as mortality at 3 mg/kg, ip after 1 day; format: organism-based; design: dose 3 mg/kg, route intraperitoneal; conditions: in vivo
[34] = Toxicity in Mus musculus ddY (mouse) assessed as mortality at 6 mg/kg, ip after 1 day; format: organism-based; design: dose 6 mg/kg, route intraperitoneal; conditions: in vivo
[35] = Toxicity in Mus musculus ddY (mouse) assessed as mortality at 5 mg/kg, ip after 1 day; format: organism-based; design: dose 5 mg/kg, route intraperitoneal; conditions: in vivo
[36] = Toxicity in Mus musculus ddY (mouse) assessed as mortality at 8 mg/kg, ip after 1 day; format: organism-based; design: dose 8 mg/kg, route intraperitoneal; conditions: in vivo
[37] = Toxicity in Mus musculus ddY (mouse) assessed as mortality at 7 mg/kg, ip after 1 day; format: organism-based; design: dose 7 mg/kg, route intraperitoneal; conditions: in vivo
[38] = system: Brassica rapa subsp. oleifera; assay: Growth inhibition of Brassica rapa subsp. oleifera assessed as chlorophyll a level at 1 x 10^-4 M after 7 days; format: functional; design: scale not given: the % may be the effect or the level left
[39] = Toxicity in Mus musculus ddY (mouse) assessed as mortality at 3 mg/kg, ip after 4 days; format: organism-based; design: dose 3 mg/kg, route intraperitoneal; conditions: in vivo
[40] = Toxicity in Mus musculus ddY (mouse) assessed as mortality at 4 mg/kg, ip after 4 days; format: organism-based; design: dose 4 mg/kg, route intraperitoneal; conditions: in vivo
[41] = Toxicity in Mus musculus ddY (mouse) assessed as mortality at 6 mg/kg, ip after 4 days; format: organism-based; design: dose 6 mg/kg, route intraperitoneal; conditions: in vivo
[42] = Toxicity in Mus musculus ddY (mouse) assessed as mortality at 5 mg/kg, ip after 4 days; format: organism-based; design: dose 5 mg/kg, route intraperitoneal; conditions: in vivo
[43] = Toxicity in Mus musculus ddY (mouse) assessed as mortality at 8 mg/kg, ip after 4 days; format: organism-based; design: dose 8 mg/kg, route intraperitoneal; conditions: in vivo
[44] = Toxicity in Mus musculus ddY (mouse) assessed as mortality at 4 mg/kg, ip after 6 days; format: organism-based; design: dose 4 mg/kg, route intraperitoneal; conditions: in vivo
[45] = Toxicity in Mus musculus ddY (mouse) assessed as mortality at 5 mg/kg, ip after 6 days; format: organism-based; design: dose 5 mg/kg, route intraperitoneal; conditions: in vivo
[46] = Toxicity in Mus musculus ddY (mouse) assessed as mortality at 7 mg/kg, ip after 6 days; format: organism-based; design: dose 7 mg/kg, route intraperitoneal; conditions: in vivo
[47] = Toxicity in Mus musculus ddY (mouse) assessed as mortality at 4 mg/kg, ip after 5 days; format: organism-based; design: dose 4 mg/kg, route intraperitoneal; conditions: in vivo
[48] = Toxicity in Mus musculus ddY (mouse) assessed as mortality at 3 mg/kg, ip after 5 days; format: organism-based; design: dose 3 mg/kg, route intraperitoneal; conditions: in vivo
[49] = Toxicity in Mus musculus ddY (mouse) assessed as mortality at 6 mg/kg, ip after 5 days; format: organism-based; design: dose 6 mg/kg, route intraperitoneal; conditions: in vivo
[50] = Toxicity in Mus musculus ddY (mouse) assessed as mortality at 5 mg/kg, ip after 5 days; format: organism-based; design: dose 5 mg/kg, route intraperitoneal; conditions: in vivo
[51] = Toxicity in Mus musculus ddY (mouse) assessed as mortality at 7 mg/kg, ip after 5 days; format: organism-based; design: dose 7 mg/kg, route intraperitoneal; conditions: in vivo
[52] = Toxicity in Mus musculus ddY (mouse) assessed as mortality at 7 mg/kg, ip after 4 days; format: organism-based; design: dose 7 mg/kg, route intraperitoneal; conditions: in vivo

## NN1C(=O)CSC1=S [AMINORHODANINE]
[1]
  Activity: 3.4%
[2]
  Activity: 3.82%
[3]
  Activity: 9.22%
[4]
  LD50: 5.07 mg/kg
[5]
  mortality at 168 h: 60%
[6]
  mortality at 168 h: 20%
[7]
  mortality at 168 h: 60%
[8]
  mortality at 168 h: 80%
[9]
  mortality at 168 h: 100%
[10]
  Activity: 13.57%
[11]
  Activity: 15.83%
[12]
  Activity: 11.16%
Allium tuberosum [13]
  Activity: 8.6 mm
Echinochloa esculenta [14]
  Activity: 16 mm
Allium tuberosum [15]
  Activity: 1.4 mm
Echinochloa esculenta [16]
  Activity: 10.8 mm
Echinochloa esculenta [17]
  Activity: 3.1 mm
[18]
  Activity: 14.1 mm
[19]
  Activity: 3.5 mm
Lactuca sativa [20]
  Activity: 6.1 mm
Lactuca sativa [21]
  Activity: 0 mm
Sesamum indicum [22]
  Activity: 6.8 mm
Sesamum indicum [23]
  Activity: 0 mm
Sesamum indicum [24]
  Activity: 3.2 mm
[25]
  mortality at 72 h: 20%
[26]
  mortality at 72 h: 60%
[27]
  mortality at 72 h: 60%
[28]
  mortality at 72 h: 80%
[29]
  mortality at 48 h: 20%
[30]
  mortality at 48 h: 80%
[31]
  mortality at 48 h: 100%
[32]
  mortality at 24 h: 20%
[33]
  mortality at 24 h: 0%
[34]
  mortality at 24 h: 60%
[35]
  mortality at 24 h: 60%
[36]
  mortality at 24 h: 100%
[37]
  mortality at 24 h: 80%
[38]
  Activity: 8.05%
[39]
  mortality at 96 h: 0%
[40]
  mortality at 96 h: 20%
[41]
  mortality at 96 h: 60%
[42]
  mortality at 96 h: 60%
[43]
  mortality at 96 h: 100%
[44]
  mortality at 144 h: 20%
[45]
  mortality at 144 h: 60%
[46]
  mortality at 144 h: 80%
[47]
  mortality at 120 h: 20%
[48]
  mortality at 120 h: 0%
[49]
  mortality at 120 h: 60%
[50]
  mortality at 120 h: 60%
[51]
  mortality at 120 h: 80%
[52]
  mortality at 96 h: 80%
